Test results reported in the supplement of paper PMC13380429.

Key:
Details in all cases: 72 h
[1] = tested on: Calu-3; experiment: drug sensitivity score (DSS) for viability; higher = more toxic; extreme values may be limits of the assay
[2] = tested on: U2OS; experiment: as above
[3] = tested on: Caco-2; experiment: as above
[4] = tested on: Vero E6; experiment: as above
[5] = tested on: Calu-3; experiment: cell viability relative to DMSO; higher = less toxic
[6] = tested on: U2OS; experiment: as above
[7] = tested on: Caco-2; experiment: as above
[8] = tested on: Vero E6; experiment: as above
[9] = tested on: Calu-3; experiment: relative viability EC50 (midpoint between 100% and the lowest measured viability); higher = less toxic
[10] = tested on: U2OS; experiment: as above
[11] = tested on: Caco-2; experiment: as above
[12] = tested on: Vero E6; experiment: as above
[13] = tested on: HepG2; experiment: drug sensitivity score (DSS) for viability; higher = more toxic; extreme values may be limits of the assay
[14] = tested on: HepG2; experiment: cell viability relative to DMSO; higher = less toxic
[15] = tested on: HepG2; experiment: relative viability EC50 (midpoint between 100% and the lowest measured viability); higher = less toxic

Structure (SMILES) | drug sensitivity score [1] | drug sensitivity score [2] | drug sensitivity score [3] | drug sensitivity score [4] | cell viability ([5]; 1 nM) | cell viability ([5]; 10 nM) | cell viability ([5]; 100 nM) | cell viability ([5]; 1000 nM) | cell viability ([5]; 10000 nM) | cell viability ([6]; 1 nM) | cell viability ([6]; 10 nM) | cell viability ([6]; 100 nM) | cell viability ([6]; 1000 nM) | cell viability ([6]; 10000 nM) | cell viability ([7]; 1 nM) | cell viability ([7]; 10 nM) | cell viability ([7]; 100 nM) | cell viability ([7]; 1000 nM) | cell viability ([7]; 10000 nM) | cell viability ([8]; 1 nM) | cell viability ([8]; 10 nM) | cell viability ([8]; 100 nM) | cell viability ([8]; 1000 nM) | cell viability ([8]; 10000 nM) | relative viability EC50 [9] | relative viability EC50 [10] | relative viability EC50 [11] | relative viability EC50 [12] | drug sensitivity score [13] | cell viability ([14]; 1 nM) | cell viability ([14]; 10 nM) | cell viability ([14]; 100 nM) | cell viability ([14]; 1000 nM) | cell viability ([14]; 10000 nM) | relative viability EC50 [15]
Nc1ncnc2c1ncn2[C@H]1CC[C@@H](CO)O1 [dideoxyadenosine] | 0 | 0 | 0 | 0 | 98.8% | 95.4% | 89.1% | 107% | 108% | 96.3% | 100% | 93.7% | 99.3% | 102% | 98.6% | 95.3% | 94.6% | 94.6% | 104% | 101% | 98% | 99.3% | 106% | 102% | > 10 µM | > 10 µM | > 10 µM | > 10 µM | – | – | – | – | – | – | –
O=C(CCCCCCCn1cc(-c2cccnc2)nn1)Nc1ccccc1-c1ccccc1 [GPP-78] | – | 17.2 | 16.8 | 28.7 | – | – | – | – | – | 101% | 99.7% | 110% | 0.2% | 0.1% | 109% | 97.9% | 106% | 4% | 3.6% | 99.2% | 103% | 8.7% | 2.1% | 2.7% | – | 0.365 µM | 0.352 µM | 0.0395 µM | 13.6 | 96.6% | 92% | 103% | 25.4% | 18.8% | 0.415 µM
COc1ccc2nc3ccc(Cl)cc3c(SCCCN)c2c1 | – | 0 | 0 | 0 | – | – | – | – | – | 98.8% | 101% | 98.4% | 104% | 98.8% | 94.9% | 99.7% | 93.9% | 93.5% | 99.2% | 99.7% | 93.7% | 93.4% | 93.2% | 109% | – | > 10 µM | > 10 µM | > 10 µM | 0 | 98.6% | 106% | 98.8% | 106% | 101% | > 10 µM
CC(C)n1c(/C=C/[C@@H](O)C[C@@H](O)CC(=O)O)c(-c2ccc(F)cc2)c2ccccc21 [fluvastatin] | 1.3 | 2.9 | 1.7 | 4.9 | 99% | 96.7% | 96.6% | 105% | 65.4% | 99.6% | 109% | 95.7% | 101% | 45.1% | 92.4% | 103% | 101% | 89.1% | 80% | 100% | 100% | 103% | 91.2% | 37.5% | – | 3.24 µM | > 10 µM | 2.05 µM | 2.5 | 97% | 104% | 99.2% | 90.7% | 71.3% | –
CN(C)C(=O)c1cc2cnc(Nc3ccc(N4CCNCC4)cn3)nc2n1C1CCCC1 [ribociclib] | 1.8 | 0 | 0 | 0.6 | 99.7% | 90.3% | 94% | 95.3% | 73.1% | 92.8% | 96.9% | 92.7% | 98.4% | 90.4% | 92.1% | 95.9% | 96.1% | 95% | 90.3% | 95.5% | 98.8% | 98% | 94.4% | 84% | – | > 10 µM | > 10 µM | > 10 µM | 4.5 | 95.1% | 101% | 87.5% | 78% | 71.8% | –
Cc1cn([C@@H]2C[C@@H](O)[C@H](CO)O2)c(=O)[nH]c1=O [telbivudine] | 0 | 0 | 0 | 0 | 118% | 92.2% | 105% | 107% | 114% | 97.8% | 103% | 96.8% | 99.1% | 105% | 92.6% | 108% | 99.8% | 106% | 116% | 98.8% | 97.6% | 92.3% | 85% | 99.3% | > 10 µM | > 10 µM | > 10 µM | > 10 µM | – | – | – | – | – | – | –
COc1cc2c(cc1OC(C)C)[C@H](c1ccc(Cl)cc1)N(c1ccc(N(C)C[C@H]3CC[C@H](N4CCN(C)C(=O)C4)CC3)cc1)C(=O)C2 [CGM097] | – | 3.8 | 0.3 | 5 | – | – | – | – | – | 98.1% | 104% | 94.7% | 94.6% | 44.8% | 96.6% | 105% | 93.6% | 98.8% | 85.9% | 102% | 105% | 95.1% | 83.3% | 46.9% | – | 2.36 µM | > 10 µM | 1.45 µM | 7.6 | 104% | 109% | 100% | 75.2% | 26.1% | 1.31 µM
N=C(N)NC(=N)Nc1ccccc1 [1-phenylbiguanide] | – | 0 | 0 | 0 | – | – | – | – | – | 99.3% | 97.7% | 103% | 101% | 100% | 96.3% | 94.8% | 95.5% | 92.4% | 98.8% | 100% | 93.4% | 94.8% | 99.4% | 101% | – | > 10 µM | > 10 µM | > 10 µM | 0 | 97.3% | 106% | 103% | 109% | 101% | > 10 µM
